The values below are quoted from earlier work in US9981985B2, “Pharmaceutical formulations containing 3-(4-cinnamyl-l-piperazinyl) amino derivatives of 3-formylrifamycin SV and 3-formylrifamycin S and a process of their preparation” (Adipharm EAD, priority 2012, dated 2018).

For series [1] the following is noted: in vivo tests, in comparison to rifampicin; from U.S. Pat. No. 5,095,108.
For series [2] the following is noted: in vivo.
For series [3] the following is noted: from U.S. Pat. No. 5,095,108.
The conditions of series [4]: in vivo. This is another data set of the same source.

For the molecule `CO[C@H]1/C=C/O[C@@]2(C)Oc3c(C)c(O)c4c(O)c(c(/C=N/N5CCN(C/C=C/c6ccccc6)CC5)c(O)c4c3C2=O)NC(=O)/C(C)=C\C=C\[C@H](C)[C@H](O)[C@@H](C)[C@@H](O)[C@@H](C)[C@H](OC(C)=O)[C@@H]1C` [Ia, 3-(4-cinnamyl-1-piperazinyl)-iminomethyl rifamycin SV], in series [1], the therapeutic effect result is on record as “higher therapeutic effect in comparison to rifampicin”. Further, the serum half-life entry in series [2] is “considerably longer”. Further, the acute toxicity result in series [3] is “low”.

Regarding “sodium salt of 3-(4-cinnamyl-1-piperazinyl)-iminomethyl rifamycin SV [Compound Ib]”, in series [4], the pharmacokinetic properties entry is on record as “better” and the resorption entry was “faster”.
